Laboratory results: ChEMBL document CHEMBL1146459, “Production of biologically active taxoids by a callus culture of Taxus cuspidata” (2004)

Experiments:
[1] = test system: St-4; experiment: Growth inhibition of human St-4 cells after 48 hrs by SRB assay; assay type: functional; details: St-4, 48 h
[2] = Growth inhibition of human HBC5 cells after 48 hrs by SRB assay; assay type: functional; details: HBC5, 48 h
[3] = test system: OVCAR-3; experiment: Growth inhibition of human OVCAR-3 cells after 48 hrs by SRB assay; assay type: functional; details: OVCAR-3, 48 h
[4] = test system: NCI-H23; experiment: Growth inhibition of human NCI-H23 cells after 48 hrs by SRB assay; assay type: functional; details: NCI-H23, 48 h
[5] = test system: HCT-15; experiment: Growth inhibition of human HCT15 cells after 48 hrs by SRB assay; assay type: functional; details: HCT-15, 48 h
[6] = Reversal of multidrug resistance in human 2780AD cells assessed as [3H]vincristine accumulation at 1 ug/mL after 2 hrs relative to verapamil; assay type: functional, A2780 ADR
[7] = test system: MKN-28; experiment: Growth inhibition of human MKN28 cells after 48 hrs by SRB assay; assay type: functional; details: MKN-28, 48 h
[8] = Growth inhibition of human RXF631L cells after 48 hrs by SRB assay; assay type: functional; details: RXF 631, 48 h
[9] = Growth inhibition of human BSY1 cells after 48 hrs by SRB assay; assay type: functional; details: BSY-1, 48 h
[10] = test system: OVCAR-4; experiment: Growth inhibition of human OVCAR4 cells after 48 hrs by SRB assay; assay type: functional; details: OVCAR-4, 48 h
[11] = test system: MKN-7; experiment: Growth inhibition of human MKN7 cells after 48 hrs by SRB assay; assay type: functional; details: MKN-7, 48 h
[12] = test system: MDA-MB-231; experiment: Growth inhibition of human MDA-MB-231 cells after 48 hrs by SRB assay; assay type: functional; details: MDA-MB-231, 48 h
[13] = Reversal of multidrug resistance in human 2780AD cells assessed as [3H]vincristine accumulation at 10 ug/mL after 2 hrs relative to verapamil; assay type: functional, A2780 ADR
[14] = test system: HCT-116; experiment: Growth inhibition of human HCT116 cells after 48 hrs by SRB assay; assay type: functional; details: HCT-116, 48 h
[15] = test system: NCI-H522; experiment: Growth inhibition of human NCI-H522 cells after 48 hrs by SRB assay; assay type: functional; details: NCI-H522, 48 h
[16] = test system: DU-145; experiment: Growth inhibition of human DU145 cells after 48 hrs by SRB assay; assay type: functional; details: DU-145, 48 h
[17] = test system: PC-3; experiment: Growth inhibition of human PC3 cells after 48 hrs by SRB assay; assay type: functional; details: PC-3, 48 h
[18] = test system: HT-29; experiment: Growth inhibition of human HT-29 cells after 48 hrs by SRB assay; assay type: functional; details: HT-29, 48 h
[19] = test system: DMS-273; experiment: Growth inhibition of human DMS273 cells after 48 hrs by SRB assay; assay type: functional; details: DMS-273, 48 h
[20] = test system: NCI-H460; experiment: Growth inhibition of human NCI-H460 cells after 48 hrs by SRB assay; assay type: functional; details: NCI-H460, 48 h
[21] = test system: NCI-H226; experiment: Growth inhibition of human NCI-H226 cells after 48 hrs by SRB assay; assay type: functional; details: NCI-H226, 48 h
[22] = test system: DMS-114; experiment: Growth inhibition of human DMS114 cells after 48 hrs by SRB assay; assay type: functional; details: DMS-114, 48 h
[23] = read-out: LC50 (the source's name)
[24] = read-out: pLC50 (the source's name) (converted)

**Q.** Which results are given for `C=C1[C@@H](OC(C)=O)CC[C@]2(C)[C@@H]1C[C@@H]1C[C@H](OC(C)=O)C(C)=C([C@@H](O)[C@@H]2OC(=O)/C=C/c2ccccc2)C1(C)C`?
**A.** GI50 ([1]; read-out: GI50): 24 µM; CC50 [1, 23]: 100 µM; TGI ([1]; read-out: TGI): 100 µM; GI50 ([1]; read-out: pGI50 (converted)): 24 µM; CC50 [1, 24]: 100 µM; TGI ([1]; read-out: pTGI (converted)): 100 µM; CC50 [2, 23]: 100 µM; TGI ([2]; read-out: TGI): 100 µM; GI50 ([2]; read-out: pGI50 (converted)): > 100 µM; CC50 [2, 24]: 100 µM; TGI ([2]; read-out: pTGI (converted)): 100 µM; GI50 ([3]; read-out: GI50): 5 µM; CC50 [3, 23]: > 100 µM; TGI ([3]; read-out: TGI): 100 µM; GI50 ([3]; read-out: pGI50 (converted)): 5.01 µM; CC50 ([3]; read-out: pLC50 (converted)): > 100 µM; TGI ([3]; read-out: pTGI (converted)): 100 µM; GI50 ([4]; read-out: GI50): > 100 µM; CC50 [4, 23]: 100 µM; TGI ([4]; read-out: TGI): 100 µM; GI50 ([4]; read-out: pGI50 (converted)): > 100 µM; CC50 [4, 24]: 100 µM; TGI ([4]; read-out: pTGI (converted)): 100 µM; GI50 ([5]; read-out: GI50): 29 µM; CC50 [5, 23]: > 100 µM; TGI ([5]; read-out: TGI): 100 µM; GI50 ([5]; read-out: pGI50 (converted)): 28.8 µM; CC50 ([5]; read-out: pLC50 (converted)): > 100 µM; TGI ([5]; read-out: pTGI (converted)): 100 µM; Activity [6]: 191%; GI50 ([7]; read-out: GI50): 12 µM; CC50 [7, 23]: > 100 µM; TGI ([7]; read-out: TGI): 100 µM; GI50 ([7]; read-out: pGI50 (converted)): 11.7 µM; CC50 ([7]; read-out: pLC50 (converted)): > 100 µM; TGI ([7]; read-out: pTGI (converted)): 100 µM; GI50 ([8]; read-out: GI50): > 100 µM; CC50 [8, 23]: 100 µM; TGI ([8]; read-out: TGI): 100 µM; GI50 ([8]; read-out: pGI50 (converted)): > 100 µM; CC50 [8, 24]: 100 µM; TGI ([8]; read-out: pTGI (converted)): 100 µM; GI50 ([9]; read-out: GI50): 6.9 µM; TGI ([9]; read-out: TGI): 82 µM; GI50 ([9]; read-out: pGI50 (converted)): 6.92 µM; TGI ([9]; read-out: pTGI (converted)): 87.1 µM; GI50 ([10]; read-out: GI50): 22 µM; CC50 [10, 23]: 100 µM; TGI ([10]; read-out: TGI): 100 µM; GI50 ([10]; read-out: pGI50 (converted)): 22.4 µM; CC50 [10, 24]: 100 µM; TGI ([10]; read-out: pTGI (converted)): 100 µM; GI50 ([11]; read-out: GI50): 5.1 µM; CC50 [11, 23]: 100 µM; TGI ([11]; read-out: TGI): 100 µM; GI50 ([11]; read-out: pGI50 (converted)): 5.13 µM; CC50 [11, 24]: 100 µM; TGI ([11]; read-out: pTGI (converted)): 100 µM; GI50 ([12]; read-out: GI50): 16 µM; TGI ([12]; read-out: TGI): 100 µM; GI50 ([12]; read-out: pGI50 (converted)): 16.2 µM; TGI ([12]; read-out: pTGI (converted)): 100 µM; Activity [13]: 122%; GI50 ([14]; read-out: GI50): 5.6 µM; CC50 [14, 23]: 100 µM; TGI ([14]; read-out: TGI): 100 µM; GI50 ([14]; read-out: pGI50 (converted)): 5.62 µM; CC50 [14, 24]: 100 µM; TGI ([14]; read-out: pTGI (converted)): 100 µM; GI50 ([15]; read-out: GI50): 3.1 µM; CC50 [15, 23]: 100 µM; TGI ([15]; read-out: TGI): 81 µM; GI50 ([15]; read-out: pGI50 (converted)): 3.09 µM; CC50 [15, 24]: 100 µM; TGI ([15]; read-out: pTGI (converted)): 100 µM; GI50 ([16]; read-out: GI50): > 100 µM; CC50 [16, 23]: 100 µM; TGI ([16]; read-out: TGI): 100 µM; GI50 ([16]; read-out: pGI50 (converted)): > 100 µM; CC50 [16, 24]: 100 µM; TGI ([16]; read-out: pTGI (converted)): 100 µM; GI50 ([17]; read-out: GI50): 5.2 µM; TGI ([17]; read-out: TGI): 100 µM; GI50 ([17]; read-out: pGI50 (converted)): 5.25 µM; TGI ([17]; read-out: pTGI (converted)): 100 µM; GI50 ([18]; read-out: GI50): 43 µM; CC50 [18, 23]: > 100 µM; TGI ([18]; read-out: TGI): 100 µM; GI50 ([18]; read-out: pGI50 (converted)): 41.7 µM; CC50 ([18]; read-out: pLC50 (converted)): > 100 µM; TGI ([18]; read-out: pTGI (converted)): 100 µM; GI50 ([19]; read-out: GI50): 4.2 µM; CC50 [19, 23]: 100 µM; TGI ([19]; read-out: TGI): 100 µM; GI50 ([19]; read-out: pGI50 (converted)): 4.17 µM; CC50 [19, 24]: 100 µM; TGI ([19]; read-out: pTGI (converted)): 100 µM; GI50 ([20]; read-out: GI50): 44 µM; TGI ([20]; read-out: TGI): 100 µM; GI50 ([20]; read-out: pGI50 (converted)): 41.7 µM; TGI ([20]; read-out: pTGI (converted)): 100 µM; GI50 ([21]; read-out: GI50): 21 µM; CC50 [21, 23]: 100 µM; TGI ([21]; read-out: TGI): 100 µM; GI50 ([21]; read-out: pGI50 (converted)): 83.2 µM; CC50 [21, 24]: 100 µM; TGI ([21]; read-out: pTGI (converted)): 100 µM; GI50 ([22]; read-out: GI50): 7.8 µM; CC50 [22, 23]: 100 µM; TGI ([22]; read-out: TGI): 100 µM; GI50 ([22]; read-out: pGI50 (converted)): 7.76 µM; CC50 [22, 24]: 100 µM; TGI ([22]; read-out: pTGI (converted)): 100 µM
